# The supplement of paper PMC10307832
# Tests used:
# Assay in all cases: relative viability (nuclei count vs DMSO), 5 days (fraction); higher = more cells survive
# Masitinib + Pemetrexed = compound: Cc1ccc(NC(=O)c2ccc(CN3CCN(C)CC3)cc2)cc1Nc1nc(-c2cccnc2)cs1 [Masitinib] + Nc1nc2[nH]cc(CCc3ccc(C(=O)N[C@@H](CCC(=O)O)C(=O)O)cc3)c2c(=O)[nH]1 [Pemetrexed] (partner 0.2 µM)
# How it was run: (§1)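 Relative viability equals treated-well nuclei counts divided by vehicle-well nuclei counts. Counts came from 4× images of lung cancer cell lines grown in 1536-well plates for 5 days after pin-tool dosing on the day after seeding. Dosing used one drug alone or a fixed anchor-drug dose plus five library-drug doses (not always all listed) in √10 steps, and values are medians of duplicate plates.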
# Masitinib + Bortezomib = compound: Cc1ccc(NC(=O)c2ccc(CN3CCN(C)CC3)cc2)cc1Nc1nc(-c2cccnc2)cs1 [Masitinib] + CC(C)C[C@H](NC(=O)[C@H](Cc1ccccc1)NC(=O)c1cnccn1)B(O)O [Bortezomib] (partner 0.002 µM)
# How it was run: as §1
# Masitinib + Tozasertib = compound: Cc1ccc(NC(=O)c2ccc(CN3CCN(C)CC3)cc2)cc1Nc1nc(-c2cccnc2)cs1 [Masitinib] + Cc1cc(Nc2cc(N3CCN(C)CC3)nc(Sc3ccc(NC(=O)C4CC4)cc3)n2)n[nH]1 [Tozasertib] (partner 0.1 µM)
# How it was run: as §1
# [1] = compound: CC1=CC(=CC=C1)NC2=NC(=CS2)C3=CC=NC=C3 + Cc1nc(Nc2ncc(C(=O)Nc3c(C)cccc3Cl)s2)cc(N2CCN(CCO)CC2)n1 [Dasatinib] (partner 0.075 µM)
# How it was run: as §1
Cell Line,relative viability (Masitinib + Pemetrexed; first compound 0.01 µM),relative viability (Masitinib + Pemetrexed; first compound 0.03162 µM),relative viability (Masitinib + Pemetrexed; first compound 0.1 µM),relative viability (Masitinib + Pemetrexed; first compound 0.3162 µM),relative viability (Masitinib + Pemetrexed; first compound 1 µM),relative viability (Masitinib + Bortezomib; first compound 0.01 µM),relative viability (Masitinib + Bortezomib; first compound 0.03162 µM),relative viability (Masitinib + Bortezomib; first compound 0.1 µM),relative viability (Masitinib + Bortezomib; first compound 0.3162 µM),relative viability (Masitinib + Bortezomib; first compound 1 µM),relative viability (Masitinib + Tozasertib; first compound 0.01 µM),relative viability (Masitinib + Tozasertib; first compound 0.03162 µM),relative viability (Masitinib + Tozasertib; first compound 0.1 µM),relative viability (Masitinib + Tozasertib; first compound 0.3162 µM),relative viability (Masitinib + Tozasertib; first compound 1 µM),relative viability ([1]; first compound 0.08 µM),relative viability ([1]; first compound 0.253 µM),relative viability ([1]; first compound 0.8 µM),relative viability ([1]; first compound 2.53 µM),relative viability ([1]; first compound 8 µM)
201T,0.309,0.343,0.319,0.347,0.345,0.918,1.09,0.99,1.09,1.07,0.711,1.01,0.85,0.789,0.926,0.59,0.515,0.497,0.508,0.382
A-427,0.758,0.986,0.857,1.03,0.771,,0.977,,0.99,1.06,,0.214,,0.171,0.227,0.61,0.658,0.681,0.681,0.518
ABC-1,,,,,,0.324,0.296,0.287,0.306,0.256,0.223,0.163,0.168,0.226,0.18,0.659,0.473,0.552,0.445,0.404
BEN,0.886,0.713,0.897,0.704,0.777,1.15,0.662,0.874,0.666,0.831,0.481,0.506,0.561,0.483,0.481,0.304,0.273,0.364,0.222,0.327
CAL-12T,1.11,1.15,1.29,1.4,1.28,0.852,1.05,1.06,1.07,0.713,0.303,0.282,0.307,0.192,0.234,0.423,0.321,0.332,0.299,0.245
COR-L23,0.214,0.227,0.194,0.205,0.196,0.924,0.806,1.11,1.26,0.972,0.207,0.164,0.168,0.124,0.15,0.479,0.511,0.389,0.338,0.402
COR-L 105,1.04,1.09,1.1,0.989,0.997,0.695,0.699,0.823,0.823,0.725,0.377,0.353,0.361,0.333,0.317,0.284,0.289,0.349,0.279,0.306
Calu-6,,,,,,0.903,1.04,1.07,0.774,0.876,,,,,,,,,,
ChaGo-K-1,0.251,0.274,0.258,0.248,0.251,1.04,1.05,1.35,1.12,0.962,0.205,0.202,0.21,0.192,0.21,0.547,0.675,0.605,0.49,0.54
EBC-1,,,,,,0.493,0.518,0.514,0.479,0.573,,,,,,,,,,
EKVX,0.375,0.511,0.466,,0.35,,1.04,1.05,0.444,0.671,,0.409,0.405,0.443,0.333,0.208,0.518,0.552,0.446,0.306
EMC-BAC-2,0.435,0.453,0.447,0.429,0.328,0.942,1.04,0.974,1.15,1.05,0.273,0.271,0.287,0.264,0.261,0.279,0.312,0.293,0.306,0.332
EPLC-272H,0.32,,0.348,0.399,0.249,0.97,0.85,0.917,1.16,0.839,0.342,0.352,0.361,0.357,0.244,0.396,0.338,0.273,0.288,0.333
H3255,0.57,0.59,0.583,0.54,0.573,,0.858,0.601,0.459,0.755,0.437,0.712,0.502,0.687,0.608,0.397,0.347,0.489,0.341,0.528
HARA,0.217,0.324,0.24,,0.279,1.05,1.09,1.18,1.17,1.04,,0.352,0.126,0.0979,0.104,0.194,0.269,0.399,0.281,0.278
